Blank lines part the entries; values can stand above or below the molecule they belong to.
How the values were obtained:
[1] = Evaluation of the switching behaviour of ASHS systems (carboxylic acid/base/water) under air and 1 bar of CO2; type: physicochemical; settings: for Behaviour of the system: base NaOH; for Behaviour of the system after CO2 addition / pH under 1 bar of CO2 / pH under air: 20° C.; for Phase behaviour upon addition of 1 bar of CO2: base Jeffamine D-230, TEA, DMEA or 3DMAP, base:acid mole ratio 1:1, water:acid mass ratio 15:1 and other ratios; for Phase behaviour upon addition of CO2 / Phases under air: substoichiometric aqueous NaOH, 0.6 to 0.7 equivalents of base
Procedure: Base solutions were prepared by combining the desired base and water (mass for components measured in an analytical scale) into either a 10 or 25 mL graduated cylinder (containing a magnetic stir bar) depending on the final volume of the mixture obtained. The carboxylic acid (mass measured using an analytical balance prior to addition) being studied was added to the base solution, and the mixture was mixed with the help of a magnetic stir plate. The amount of base and water used were selected based on the acid:base:water ratio desired. Experiments were carried out using stoichiometric and substoichiometric amounts of the base relative to the number of mols of acid added. In addition, the quantity of water used was adjusted based on the acid:water mass ratio desired. A typical experiment would contain 1 g of the carboxylic acid; between 0.4 and 1 mol of base per mol of acid; and a water mass varying from 1 to 9.5 g.
During a typical experiment, CO2 would be added for approximately 2 h at atmospheric pressure. At the end of the 2 h, the sparge tube would be removed, and the number and volume of the phases obtained would be recorded. The pH was once again recorded. For mixtures with only 1 phase, the pH of that phase was recorded. While for mixtures with 2 phases, the pH of the aqueous phase was recorded.
In the systems in which the base:acid mole ratio and the water:acid mass ratio were being studied, a slight modification from this method was used. The acid being tested (1 g) was mixed with 1 g of water and the required amount of NaOH (based on the acid:base molar ratio desired) to prepare the mixture. […]
The base solution was then added to the carboxylic acid, and the next steps followed the procedure previously described.

[2] = CPPA-EPS mixture, limited by viscosity; 60° C.
[3] = base 3DMAP, base:acid mole ratio 0.45:1, H2O:acid mass ratio 2.5:1
[4] = base DMEA, base:acid mole ratio 0.50:1, H2O:acid mass ratio 2.5:1
[5] = base Jeffamine D-230 (two moles acid per mole D-230), H2O:acid mass ratio 12:1, 1 bar CO2, partial = acid recovered smaller than mass added
[6] = base Jeffamine D-230 (two moles acid per mole D-230), H2O:acid mass ratio 12:1
[7] = base Jeffamine D-230 (two moles acid per mole D-230), H2O:acid mass ratio 15:1, 1 bar CO2, partial = acid recovered smaller than mass added
[8] = base Jeffamine D-230 (two moles acid per mole D-230), H2O:acid mass ratio 15:1
[9] = base MDEA, base:acid mole ratio 0.50:1, H2O:acid mass ratio 2.5:1
[10] = carboxylic acid:H2O mass ratio 1:2.5, carboxylic acid:NaOH mol ratio 1:0.8
[11] = base TEA, base:acid mole ratio 0.40:1, H2O:acid mass ratio 2.5:1
[12] = base 3DMAP, base:acid mole ratio 0.55:1, H2O:acid mass ratio 2.5:1
[13] = base DMEA, base:acid mole ratio 0.60:1, H2O:acid mass ratio 2.5:1
[14] = base Jeffamine D-230 (two moles acid per mole D-230), H2O:acid mass ratio 1:1-9.5:1
[15] = base MDEA, base:acid mole ratio 0.65:1, H2O:acid mass ratio 2.5:1
[16] = base TEA, MDEA, DMEA or 3-DMAP, base:acid mol ratio 1:1, H2O:acid mass ratio 12:1-15:1
[17] = base TEA, base:acid mole ratio 0.65:1, H2O:acid mass ratio 2.5:1
[18] = base 3DMAP, base:acid mole ratio 0.60:1, H2O:acid mass ratio 2.5:1
[19] = base DMEA, base:acid mole ratio 0.55:1, H2O:acid mass ratio 2.5:1
[20] = base MDEA, base:acid mole ratio 0.55:1, H2O:acid mass ratio 2.5:1
[21] = base TEA, base:acid mole ratio 0.60:1, H2O:acid mass ratio 2.5:1

Behaviour of the system ([1]; carboxylic acid:H2O mass ratio 1:12, carboxylic acid:NaOH mol ratio 1:1): Biphasic under air
Structure (SMILES): CCCCCCCCC(CCCCCC)C(=O)O (centres unmarked) [2-hexyldecanoic acid]

Behaviour of the system ([1]; carboxylic acid:H2O mass ratio 1:2.5, carboxylic acid:NaOH mol ratio 1:0.5 and 1:0.6): Monophasic under
Structure (SMILES): CC(C(=O)O)c1ccccc1 (centres unmarked) [2-phenylpropionic acid]

Behaviour of the system ([1]; carboxylic acid:H2O mass ratio 1:2.5, carboxylic acid:NaOH mol ratio 1:1): Switchable
Structure (SMILES): C=CCCCCCCCCC(=O)O [10-undecenoic acid]

maximum polymer (EPS) loading attained in the carboxylic acid [2]: 50 wt % | Behaviour of the system after CO2 addition ([1]; base 3DMAP, base:acid mole ratio 0.45:1, H2O:acid mass ratio 2.5:1, 1 bar CO2, threshold 50 vol % recovered): Phase separation above 50 | pH under 1 bar of CO2 [1, 3]: 6.02 | pH under air [1, 3]: 6.06 | Behaviour of the system after CO2 addition ([1]; base DMEA, base:acid mole ratio 0.50:1, H2O:acid mass ratio 2.5:1, 1 bar CO2): No phase separation | pH under 1 bar of CO2 [1, 4]: 6.25 | pH under air [1, 4]: 6.22 | Behaviour of the system after CO2 addition [1, 5]: No phase separation | pH under 1 bar of CO2 [1, 6]: 6.55 | pH under air [1, 6]: 7.00 | Behaviour of the system after CO2 addition [1, 7]: No phase separation | pH under 1 bar of CO2 [1, 8]: 6.45 | pH under air [1, 8]: 6.94 | Phase behaviour upon addition of 1 bar of CO2 ([1]; MDEA): no phase separation was observed | Behaviour of the system after CO2 addition ([1]; base MDEA, base:acid mole ratio 0.50:1, H2O:acid mass ratio 2.5:1, 1 bar CO2): No phase separation | pH under 1 bar of CO2 [1, 9]: 6.23 | pH under air [1, 9]: 6.16 | Behaviour of the system ([1]; 2:1 H2O:acid mass ratio, 1 bar CO2, narrow range of base:acid ratio): successful switchable behaviour | Behaviour of the system [1, 10]: Switchable | Behaviour of the system after CO2 addition ([1]; base TEA, base:acid mole ratio 0.40:1, H2O:acid mass ratio 2.5:1, 1 bar CO2): No phase separation | pH under 1 bar of CO2 [1, 11]: 6.04 | pH under air [1, 11]: 5.98 | Phase behaviour upon addition of CO2 [1]: phase separation was observed | Phases under air [1]: one phase
Structure (SMILES): O=C(O)CCC1CCCC1 [CPPA, 3-cyclopentylpropionic acid]

Structure (SMILES): CCCCCC(=O)O [Hexanoic acid, hexanoic acid]
Behaviour of the system ([1]; carboxylic acid:H2O mass ratio 2:1, carboxylic acid:NaOH mol ratio 1:0.6): Monophasic under

Behaviour of the system ([1]; carboxylic acid:H2O mass ratio 1:2.5, carboxylic acid:NaOH mol ratio 1:0.6): Monophasic under
Structure (SMILES): CC(C)C(=O)O [Isobutyric acid, isobutyric acid]

Behaviour of the system ([1]; carboxylic acid:H2O mass ratio 1:5, carboxylic acid:NaOH mol ratio 1:1): Biphasic under air
Structure (SMILES): CCCCC/C=C\C/C=C\CCCCCCCC(=O)O [Linoleic acid, linoleic acid]

Behaviour of the system ([1]; carboxylic acid:H2O mass ratio 1:2.5, carboxylic acid:NaOH mol ratio 1:0.7): Switchable
Structure (SMILES): CCCCCCCCC(=O)O [Nonanoic acid, nonanoic acid]

Behaviour of the system after CO2 addition ([1]; base 3DMAP, base:acid mole ratio 0.55:1, H2O:acid mass ratio 2.5:1, 1 bar CO2, threshold 50 vol % recovered): Phase separation below 50 | pH under 1 bar of CO2 [1, 12]: 6.46 | pH under air [1, 12]: 6.34 | Behaviour of the system after CO2 addition ([1]; base DMEA, base:acid mole ratio 0.60:1, H2O:acid mass ratio 2.5:1, 1 bar CO2, threshold 50 vol % recovered): Phase separation below 50 | pH under 1 bar of CO2 [1, 13]: 6.71 | pH under air [1, 13]: 6.86 | Behaviour of the system after CO2 addition ([1]; base Jeffamine D-230 (two moles acid per mole D-230), H2O:acid mass ratio 1:1-9.5:1, 1 bar CO2): No phase separation | pH under 1 bar of CO2 [1, 14]: 6.85-7.60 | pH under air [1, 14]: 7.60-7.90 | Behaviour of the system after CO2 addition [1, 7]: Partial phase separation^b | pH under 1 bar of CO2 [1, 8]: 6.70 | pH under air [1, 8]: 7.55 | Phase behaviour upon addition of 1 bar of CO2 ([1]; MDEA): no phase separation was observed | Behaviour of the system after CO2 addition ([1]; base MDEA, base:acid mole ratio 0.65:1, H2O:acid mass ratio 2.5:1, 1 bar CO2): No phase separation | pH under 1 bar of CO2 [1, 15]: 6.65 | pH under air [1, 15]: 6.69 | Behaviour of the system ([1]; carboxylic acid:H2O mass ratio 1:1.5 and 1:2.5, carboxylic acid:NaOH mol ratio 1:0.9): Switchable | Behaviour of the system after CO2 addition ([1]; base TEA, MDEA, DMEA or 3-DMAP, base:acid mol ratio 1:1, H2O:acid mass ratio 12:1-15:1, 1 bar CO2): No phase separation | pH under 1 bar of CO2 [1, 16]: 6.70-6.90 | pH under air [1, 16]: 7.60-7.70 | Behaviour of the system after CO2 addition ([1]; base TEA, base:acid mole ratio 0.65:1, H2O:acid mass ratio 2.5:1, 1 bar CO2): No phase separation | pH under 1 bar of CO2 [1, 17]: 6.75 | pH under air [1, 17]: 6.68
Structure (SMILES): CCCCCCCC(=O)O [Octanoic acid, octanoic acid, reference compound]

Behaviour of the system ([1]; carboxylic acid:H2O mass ratio 1:10, carboxylic acid:NaOH mol ratio 1:1): Biphasic under air
Structure (SMILES): CCCCCCCC/C=C\CCCCCCCC(=O)O [Oleic acid, oleic acid]

Behaviour of the system after CO2 addition ([1]; base 3DMAP, base:acid mole ratio 0.60:1, H2O:acid mass ratio 2.5:1, 1 bar CO2, threshold 50 vol % recovered): Phase separation above 50 | pH under 1 bar of CO2 [1, 18]: 6.70 | pH under air [1, 18]: 6.63 | Behaviour of the system after CO2 addition ([1]; base DMEA, base:acid mole ratio 0.55:1, H2O:acid mass ratio 2.5:1, 1 bar CO2, threshold 50 vol % recovered): Phase separation above 50 | pH under 1 bar of CO2 [1, 19]: 6.78 | pH under air [1, 19]: 6.70 | Behaviour of the system after CO2 addition [1, 5]: Partial phase separation | pH under 1 bar of CO2 [1, 6]: 6.84 | pH under air [1, 6]: 7.86 | Behaviour of the system after CO2 addition [1, 7]: Partial phase separation | pH under 1 bar of CO2 [1, 8]: 6.73 | pH under air [1, 8]: 8.43 | Phase behaviour upon addition of 1 bar of CO2 ([1]; MDEA): no phase separation was observed | Behaviour of the system after CO2 addition ([1]; base MDEA, base:acid mole ratio 0.55:1, H2O:acid mass ratio 2.5:1, 1 bar CO2, threshold 50 vol % recovered): Phase separation above 50 | pH under 1 bar of CO2 [1, 20]: 6.69 | pH under air [1, 20]: 6.59 | Behaviour of the system [1, 10]: Switchable | Behaviour of the system after CO2 addition ([1]; base TEA, base:acid mole ratio 0.60:1, H2O:acid mass ratio 2.5:1, 1 bar CO2): No phase separation | pH under 1 bar of CO2 [1, 21]: 6.72 | pH under air [1, 21]: 6.51 | Phase behaviour upon addition of CO2 [1]: phase separation was observed | Phases under air [1]: one phase
Structure (SMILES): CCCC(CCC)C(=O)O [PPA, 2-propylpentanoic acid]

From patent US12605653B2, “Anionic switchable hydrophilicity solvents” (QUEEN'S UNIVERSITY AT KINGSTON, priority 2022, dated 2026)
